The source of these data is patent publication US5723484A, “Benzopyran compounds as 5-HT2C receptor antagonists” (Adir et Compagnie, priority 1994, dated 1998).

Assay [1] addresses T1, 5-HT2C receptors (Sus scrofa, UniProt K7GSR7).
T1 construct: pig cerebral plexus; from tissue; host or cells: pig cerebral plexus (own knowledge: choroid plexus)
T1 sequence (K7GSR7 1-457): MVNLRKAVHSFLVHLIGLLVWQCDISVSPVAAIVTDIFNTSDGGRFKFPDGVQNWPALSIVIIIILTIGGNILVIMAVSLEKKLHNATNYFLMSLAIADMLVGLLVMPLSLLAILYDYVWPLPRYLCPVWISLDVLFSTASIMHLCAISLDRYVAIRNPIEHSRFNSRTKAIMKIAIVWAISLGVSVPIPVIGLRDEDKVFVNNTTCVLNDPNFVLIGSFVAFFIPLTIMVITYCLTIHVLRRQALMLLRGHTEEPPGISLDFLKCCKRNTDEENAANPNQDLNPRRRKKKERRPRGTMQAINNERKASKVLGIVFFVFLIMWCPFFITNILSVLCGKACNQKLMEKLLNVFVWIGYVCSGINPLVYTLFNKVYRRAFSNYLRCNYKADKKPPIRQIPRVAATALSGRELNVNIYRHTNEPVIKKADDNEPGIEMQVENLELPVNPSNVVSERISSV
The assay can be described thus: biochemical. The assay is classed as binding, pig. Conditions: for Ki: 5-HT2C Ki (nM), pig cerebral plexus, [3H]-mesulergine 1.0 nM, average of two to four determinations. How it is done: (§1) Measurement of the in vitro affinity for the 5-HT2C and 5-HT2A receptors
(§2) The procedures described for the studies of the binding to the 5-HT2A and 5-HT2C receptors are exactly those described by H. Canton et al. (Eur. J. Pharmacol., 191, 93, 1990) and M. J. Millan et al. (J. Pharmacol. Exp. Ther., 262, 451-463, 1992). For 5-HT2A : rat frontal cortex/[^3 H]-ketanserin (1.0 nM). For 5-HT2C : pig […] plexus/[^3 H]-mesulergine (1.0 nM). The 50% inhibitory doses (ID50) are determined by regression analysis and the pKi values are calculated as follows: [formula] [L]=concentration of the Kd-Kd=dissociation constant Results

In assay [2] the test system is 5-HT2C receptors. Put plainly: biochemical. Conditions: for 5-HT2A /5-HT2C affinity ratio: 5-HT2A Ki (rat frontal cortex) over 5-HT2C Ki (pig cerebral plexus); for selectivity relative to the reference compound SB 200,646: 5-HT2C vs 5-HT2A, relative to SB 200,646. The assay is classed as binding, pig. As to the method:
as §1, §2

In the next assay the target is T2, 5-HT2A receptors (Rattus norvegicus, UniProt P14842).
T2 construct: rat frontal cortex; from tissue; host or cells: rat frontal cortex
T2 sequence (P14842 whole entry): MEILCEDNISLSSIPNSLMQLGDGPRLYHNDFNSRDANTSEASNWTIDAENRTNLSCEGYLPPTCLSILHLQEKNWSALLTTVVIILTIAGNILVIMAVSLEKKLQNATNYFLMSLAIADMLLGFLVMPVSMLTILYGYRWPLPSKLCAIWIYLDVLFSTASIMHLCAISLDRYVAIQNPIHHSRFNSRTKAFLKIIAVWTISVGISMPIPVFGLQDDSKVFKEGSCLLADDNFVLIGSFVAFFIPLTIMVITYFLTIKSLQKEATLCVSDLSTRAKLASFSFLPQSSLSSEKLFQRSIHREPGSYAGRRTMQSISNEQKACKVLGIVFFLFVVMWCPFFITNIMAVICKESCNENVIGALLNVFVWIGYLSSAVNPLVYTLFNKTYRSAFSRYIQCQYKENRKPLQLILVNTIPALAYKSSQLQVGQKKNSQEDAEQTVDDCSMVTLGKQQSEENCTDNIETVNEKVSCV
The assay can be described thus: In vitro affinity for the 5-HT2A receptors, rat frontal cortex/[3H]-ketanserin (1.0 nM). The assay is classed as binding. Conditions: rat frontal cortex, [3H]-ketanserin 1.0 nM; average of two to four determinations. As to the method: as §1, §2

Molecules are shown by their SMILES. Counter-ions that a name gives are not always drawn. Bounds are passed on as bounds.

For `Cl.Oc1cccc2c1[C@H]1CN(Cc3ccccc3)C[C@@H]1CO2` (relative stereo) [Example 2, trans-2-Benzyl-9-hydroxy-1,3,3a,4,9b-pentahydro-(1)-benzopyrano[3,4-c]pyrrole hydrochloride], the inhibitory constant (Ki) – broadly, a dissociation constant, usually derived from enzyme kinetics or from competition with a known ligand – at 5-HT2C receptors [1] is 195 nM; at 5-HT2A receptors, 490 nM. Moreover, in the assay with 5-HT2C receptors [2], the “5-HT2A /5-HT2C affinity ratio” value came out at 2.5.
The matching figures for `COc1cccc2c1[C@H]1CN(Cc3ccccc3)C[C@@H]1CO2.Cl` (relative stereo) [Example 3, trans-2-Benzyl-9-methoxy-1,3,3a,4,9b-pentahydro-(1)-benzopyrano[3,4-c]pyrrole hydrochloride]: 48 nM, 269 nM and 5.6.
The matching figures for `COc1cccc2c1[C@H]1CNC[C@@H]1CO2.Cl` (relative stereo) [Example 4, trans-9-Methoxy-1,3,3a,4,9b-pentahydro-(1)-benzopyrano[3,4-c]pyrrole hydrochloride]: 431 nM, 3470 nM and 8.0.
The compound `CCCN1C[C@@H]2COc3cccc(OC)c3[C@H]2C1` (relative stereo) [Example 6, trans-2-Propyl-9-methoxy-1,3,3a,4,9b-pentahydro-(1)-benzopyrano[3,4-c]pyrrole] came in with a Ki at 5-HT2C receptors [1] of 104 nM. For the same compound, in the assay with 5-HT2C receptors [2], the “5-HT2A /5-HT2C affinity ratio” value is on record as 16.7 and the “selectivity relative to the reference compound SB 200,646” value is “twice that of the reference compound SB 200,646”. The compound also showed an inhibitory constant (Ki) on 5-HT2A receptors of 1740 nM.
The matching figures for `C=CCN1C[C@@H]2COc3cccc(OC)c3[C@H]2C1` (relative stereo) [Example 7, trans-2-Allyl-9-methoxy-1,3,3a,4,9b-pentahydro-(1)-benzopyrano[3,4-c]pyrrol]: 120 nM, 15.2, “twice that of the reference compound SB 200,646” and 1820 nM.
Turning to `COc1cccc2c1[C@@H]1CN(CCNC(=O)c3ccc(F)cc3)C[C@H]1CO2` (relative stereo) [Example 8, trans-2-[3-(4-Fluorobenzoylamino)ethyl]-9-methoxy-1,3,3a,4,9b-pentahydro-(1)-benzopyrano[3,4-c]pyrrole], the Ki stood at 107 nM on 5-HT2C receptors [1] and 95 nM on 5-HT2A receptors. For the same compound, the “5-HT2A /5-HT2C affinity ratio” value in the assay on 5-HT2C receptors [2] was determined as 0.9.
The matching figures for `COc1ccc2c(c1)[C@H]1CN(Cc3ccccc3)C[C@@H]1CO2.Cl` (relative stereo) [Example 9, trans-2-Benzyl-8-methoxy-1,3,3a,4,9b-pentahydro-(1)-benzopyrano[3,4-c]pyrrole hydrochloride]: 468 nM, 1100 nM and 2.3.
With `COc1ccc2c(c1)[C@H]1CNC[C@@H]1CO2.Cl` (relative stereo) [Example 10, trans-8-Methoxy-1,3,3a,4,9b-pentahydro-(1)-benzopyrano[3,4-c]pyrrole hydrochloride], the values for the inhibition constant Ki on 5-HT2C receptors [1] and on 5-HT2A receptors were 2190 nM and over 10000 nM, respectively. Besides, the “5-HT2A /5-HT2C affinity ratio” value in the assay with 5-HT2C receptors [2] is over 4.8.
The matching figures for `CCCN1C[C@@H]2COc3ccc(OC)cc3[C@H]2C1.Cl` (relative stereo) [Example 11, trans-2-Propyl-8-methoxy-1,3,3a,4,9b-pentahydro-(1)-benzopyrano[3,4-c]pyrrole hydrochloride]: 4070 nM, over 10000 nM and over 2.3.
For `Cl.c1ccc(CN2C[C@@H]3COc4ccccc4[C@@H]3C2)cc1` (relative stereo) [Example 12, cis-2-Benzyl-1,3,3a,4,9b-pentahydro-(1)-benzopyrano[3,4-c]pyrrole hydrochloride], the Ki at 5-HT2C receptors [1] turned out to be 832 nM; on 5-HT2A receptors it was 3550 nM. Also, the “5-HT2A /5-HT2C affinity ratio” value in the assay with 5-HT2C receptors [2] was determined as 4.3.
The matching figures for `Cl.c1ccc2c(c1)OC[C@H]1CNC[C@@H]21` (relative stereo) [Example 13, cis-1,3,3a,4,9b-Pentahydro-(1)-benzopyrano[3,4-c]pyrrole hydrochloride]: 3090 nM, over 10000 nM and over 3.33.
With `Oc1cccc2c1[C@H]1CN(Cc3ccccc3)C[C@H]1CO2` (relative stereo) [Example 14, cis-2-Benzyl-9-hydroxy-1,3,3a,4,9b-pentahydro-(1)-benzopyrano[3,4-c]pyrrolehydrochloride], the Ki turned out to be 219 nM on 5-HT2C receptors [1] and 1100 nM on 5-HT2A receptors. The “5-HT2A /5-HT2C affinity ratio” value with 5-HT2C receptors [2] is 5.00.
With `COc1cccc2c1[C@H]1CN(Cc3ccccc3)C[C@H]1CO2` (relative stereo) [Example 15, cis-2-Benzyl-9-methoxy-1,3,3a,4,9b-pentahydro-(1)-benzopyrano[3,4-c]pyrrolehydrochloride], the Ki on 5-HT2C receptors [1] is 36.3 nM; at 5-HT2A receptors, 389 nM. The “5-HT2A /5-HT2C affinity ratio” value in the assay with 5-HT2C receptors [2] worked out at 10.7.
The matching figures for `COc1cccc2c1[C@@H]1CNC[C@@H]1CO2.Cl` (relative stereo) [Example 16, cis-9-Methoxy-1,3,3a,4,9b-pentahydro-(1)-benzopyrano[3,4-c]pyrrole hydrochloride]: 263 nM, 3310 nM and 12.6.
For `Cl.Clc1ccc2c(c1)OC[C@H]1CN(Cc3ccccc3)C[C@H]21` (relative stereo) [Example 18, trans-2-Benzyl-7-chloro-1,3,3a,4,9b-pentahydro-(1)-benzopyrano[3,4-c]pyrrole hydrochloride] the same measures were 871 nM, 1870 nM and 2.1.
With `c1ccc2c(c1)OC[C@@H]1CN(CCOc3cccc4c3SCCC4)C[C@H]21` (relative stereo) [Example 19, cis-2-[2-(Thiochroman-8-yloxy)ethyl]-1,3,3a,9b-pentahydro-(1)-benzopyrano[3,4-c]pyrrole hydrochloride], the Ki at 5-HT2C receptors [1] was found to be 22 nM; at 5-HT2A receptors it was 155 nM. On 5-HT2C receptors [1] (relative to SB 200,646), the “times more powerful antagonists than the reference compound SB 200,646” value stood at 9 times. Also, in the assay on 5-HT2C receptors [2], the “5-HT2A /5-HT2C affinity ratio” value is 7.0.
Turning to `COc1ccc2c(c1)OC[C@@H]1CN(Cc3ccccc3)C[C@H]21` (relative stereo) [Example 21, cis-2-Benzyl-7-methoxy-1,3,3a,4,9b-pentahydro-(1)-benzopyrano[3,4-c]pyrrolehydrochloride], the Ki at 5-HT2C receptors [1] is 871 nM; on 5-HT2A receptors, 617 nM. The “5-HT2A /5-HT2C affinity ratio” value with 5-HT2C receptors [2] is recorded as 0.7.
`COc1ccc2c(c1)OC[C@H]1CN(Cc3ccccc3)C[C@H]21.Cl` (relative stereo) [Example 22, trans-2-Benzyl-7-methoxy-1,3,3a,4,9b-pentahydro-(1)-benzopyrano[3,4-c]pyrrole hydrochloride]: the Ki at 5-HT2C receptors [1] stood at 478 nM; on 5-HT2A receptors, 170 nM. In the assay with 5-HT2C receptors [2], the “5-HT2A /5-HT2C affinity ratio” value came to 3.6.
The matching figures for `Clc1ccc2c(c1)[C@H]1CN(Cc3ccccc3)C[C@H]1CO2` (relative stereo) [Example 24, cis-2-Benzyl-8-chloro-1,3,3a,4,9b-pentahydro-(1)-benzopyrano[3,4-c]pyrrolehydrochloride]: 38 nM, 107 nM and 2.8.
As to `Cl.c1ccc2c3c(ccc2c1)OC[C@@H]1CNC[C@@H]31` (relative stereo) [Example 33, trans-1,2,3,3a,4,11c-Hexahydro-5-oxa-2-aza-cyclopenta[c]phenanthrene hydrochloride], the Ki is 51 nM at 5-HT2C receptors [1] and 107 nM on 5-HT2A receptors. Also, the “5-HT2A /5-HT2C affinity ratio” value in the assay with 5-HT2C receptors [2] is given as 2.1.
The matching figures for `Cl.c1ccc(CN2C[C@H]3COc4c(ccc5ccccc45)[C@@H]3C2)cc1` (relative stereo) [Example 34, trans-16-Benzyl-12,13,14,15,16,17-hexahydro-11-oxa-16-aza-cyclopenta[a]phenanthrene hydrochloride]: 776 nM, 1480 nM and 1.9.
As for `Cl.c1ccc(CN2C[C@@H]3COc4c(ccc5ccccc45)[C@@H]3C2)cc1` (relative stereo) [Example 35, cis-16-Benzyl-12,13,14,15,16,17-hexahydro-11-oxa-16-aza-cyclopenta[a]phenanthrene hydrochloride], the values for the Ki at 5-HT2C receptors [1] and at 5-HT2A receptors were 331 nM and 955 nM, respectively. In the assay with 5-HT2C receptors [2], the “5-HT2A /5-HT2C affinity ratio” value came out at 2.9.
